The results in this text go back to BindingDB's records for doi:10.1021/jm960097t (Duquesne University, 1996).

The target of test [1] is Thymidylate synthase (Streptococcus faecium). Description: The inhibitory concentration of compound was evaluated on Streptococcus faecium Thymidylate synthase.
Test [2] concerns the target Thymidylate synthase (Pneumocystis carinii). Description: The inhibitory concentration of compound was evaluated on Pneumocystis carini Thymidylate synthase.

In the case of `Cc1[nH]c2nc(N)[nH]c(=O)c2c1Sc1ccc2ccccc2c1` [2-Amino-6-methyl-5-(naphthalen-2-ylsulfanyl)-3,7-dihydro-pyrrolo[2,3-d]pyrimidin-4-one], in test [1], the IC50 was greater than 25 µM.
Still for that read-out and setting: the figure for `Cc1[nH]c2nc(N)[nH]c(=O)c2c1Sc1ccncc1` [2-Amino-6-methyl-5-(pyridin-4-ylsulfanyl)-3,7-dihydro-pyrrolo[2,3-d]pyrimidin-4-one] is 29 µM.
In the case of `Cc1[nH]c2nc(N)[nH]c(=O)c2c1Sc1ccccc1` [2-Amino-6-methyl-5-phenylsulfanyl-3,7-dihydro-pyrrolo[2,3-d]pyrimidin-4-one], the IC50 was greater than 30 µM in test [1] and 60 µM in test [2].

As usually defined, the IC50 is the concentration that gives 50% inhibition. The low end stands for greater potency, the high end for weaker potency.
